According to US20240327787A1, “CULTURE MEDIUM, COATING MATRIX AND METHOD FOR EXPANDING MIDBRAIN DOPAMINERGIC PROGENITOR CELLS” (NUWACELL BIOTECHNOLOGIES CO., LTD., priority 2022, published 2024):

B1: VTN: vitronectin, first coating matrix that supports cell adhesion (protein, UniProt P04004 20-478, looked up)
Vitronectin: DQESCKGRCTEGFNVDKKCQCDELCSYYQSCCTDYTAECKPQVTRGDVFTMPEDEYTVYDDGEEKNNATVHEQVGGPSLTSDLQAQSKGNPEQTPVLKPEEEAPAPEVGASKPEGIDSRPETLHPGRPQPPAEEELCSGKPFDAFTDLKNGSLFAFRGQYCYELDEKAVRPGYPKLIRDVWGIEGPIDAAFTRINCQGKTYLFKGSQYWRFEDGVLDPDYPRNISDGFDGIPDNVDAALALPAHSYSGRERVYFFKGKQYWEYQFQHQPSQEECEGSSLSAVFEHFAMMQRDSWEDIFELLFWGRTSAGTRQPQFISRDWHGVPGQVDAAMAGRIYISGMAPRPSLAKKQRFRHRNRKGYRSQRGHSRGRNQNSRRPSRATWLSLFSSEESNLGANNYDDYRMDWLVPATCEPIQSVFFFSGDKYYRVNLRTRRVDTVDPPYPRSIAQYWLGCPAPGHL

What was measured:
Format in all cases: cell-based, human
imDAPs [1] = experiment: imDAP expansion, cell morphology (bright-field); details: for attachment and morphology of imDAPs on coated surface (FIG. 4A): coating 1 μg/cm^2 each, day 4, Example 8 expansion medium
Experimental: imDAPs were produced according to the method described in CN201910169525.0. The imDAPs (P0) were seeded on VTN-coated plates (1 μg/cm^2) at a density of 1×10^5 cells/cm^2 in the expansion medium (50% DMEM/F12, 50% Neurobasal™ medium, 1% (v/v) Glutamax, 2% (v/v) B27 (50×), 0.2 μM LDN193189, 3 μM CHIR99021, 100 ng/mL FGF8b) in the absence or presence of 5 μM Blebbistatin. In case where Blebbistatin is present, Blebbistatin was either removed 24 hrs after plating or present throughout the culture period. The medium was changed every day for 5 days.
imDAPs were produced according to the method described in CN201910169525.0. The imDAPs (P0) were seeded on VTN-coated plates (1 μg/cm^2) at a density of 1×10^5 cells/cm^2 in the expansion medium (50% DMEM/F12, 50% Neurobasal™ medium, 1% (v/v) Glutamax, 2% (v/v) B27 (50×), 3 μM CHIR99021, 100 ng/mL FGF8b, 5 μM Blebbistatin) in the absence or presence of 0.2 μM LDN193189. The medium was changed every day for 5 days.
(§1) imDAPs were produced according to the method described in CN201910169525.0. The imDAPs (P0) were seeded on DLL4-coated (1 μg/cm^2), VTN-coated (1 μg/cm^2) and DLL4/VTN-coated (1 μg/cm^2 for each) plates at a low density of 1×10^4 cells/cm^2 respectively, and cultured in the expansion medium in the absence or presence of 5 μM SB431542. Medium was replaced every 3rd day until reaching 100% confluence (6 days) for cell collection. The typical cell morphology on day 4 was recorded (FIG. 4A). The cell number of each group was counted by Vi-cell cytometer (FIG. 4B). The cells of each group were stained with Foxa2-PE antibody (BD, #561589), the percentage of Foxa2+ imDAPs were analyzed by flow cytometry (FIG. 4C). The expansion medium used in this example contained the following components: 50% DMEM/F12, 50% Neurobasal™ medium, 1% (v/v) Glutamax, 1% (v/v) B27, 50 μg/ml ascorbic acid, 0.2 μM LDN193189, 100 ng/ml FGF8b, 3 μM CHIR99021 and 10 µM Y27632.
(§2) imDAPs were produced according to the method described in CN201910169525.0. The imDAPs (P0) were seeded on DLL4/VTN-coated (1 μg/cm^2 for each) plates at a low density of 1×10^4 cells/cm^2, and cultured in the expansion medium (EM1, EM2, EM3, EM4). Medium was replaced every 3rd day until reaching 100% confluence (6 days) for cell collection. EM1 used in Example 9 contained the following components: 50% DMEM/F12, 50% Neurobasal™ medium, 1% (v/v) Glutamax, 1% (v/v) B27 (50×), 50 μg/ml ascorbic acid, 3 μM CHIR99021, 5 μM SB431542 and 10 μM Y27632. EM2 used in Example 9 contained the following components: 50% DMEM/F12, 50% Neurobasal™ medium, 1% (v/v) Glutamax, 1% (v/v) B27 (50×), 50 μg/ml ascorbic acid, 0.2 μM LDN193189, 3 μM CHIR99021, 5 μM SB431542 and 10 μM Y27632. EM3 used in Example 9 contained the following components: 50% DMEM/F12, 50% Neurobasal™ medium, 1% (v/v) Glutamax, 1% (v/v) B27 (50×), 50 μg/mL ascorbic acid, 0.2 μM LDN193189, 100 ng/ml FGF8b, 3 μM CHIR99021, 5 μM SB431542 and 10 μM Y27632. EM4 used in Example 9 contained the following components: 50% DMEM/F12, 50% Neurobasal™ medium, 1% (v/v) Glutamax, 1% (v/v) B27 (50×), 50 μg/ml ascorbic acid, 0.2 μM LDN193189, 10 ng/ml FGF2, 3 μM CHIR99021, 5 μM SB431542 and 10 μM Y27632.

imDAPs [2] = experiment: imDAP expansion efficiency (cell number, expansion fold, Population Doubling Time); details: DLL4/VTN-coated; for imDAP expansion, overall conclusion of Example 9: added to CHIR99021/SB431542/Y27632 medium
Experimental: imDAPs were produced according to the method described in CN201910169525.0. The imDAPs (P0) were seeded on VTN-coated plates (1 μg/cm^2) at a density of 1×10^5cells/cm^2 in the expansion medium (50% DMEM/F12, 50% Neurobasal™ medium, 1% (v/v) Glutamax, 2% (v/v) B27 (50×), 0.2 μM LDN193189, 3 μM CHIR99021, 100 ng/mL FGF8b, 5 μM Blebbistatin). The medium was changed every day. When imDAPs reach 100% confluence (4-5 days), cells were passaged enzymatically with 1× TrypLE, centrifuged at 250 g for 5 minutes, counted and replaced on new VTN-coated plates (1 μg/cm^2) at a density of 1×10^5 cells/cm^2 in the expansion medium. imDAPs were continuously expanded for 6 passages. At each passage, imDAPs were harvested at an expansion fold 5˜10 (over the initial number of imDAPs plated).
as §1, with “The expansion medium used in this example contained the following components: 50% DMEM/F12, 50% Neurobasal™ medium, 1% (v/v) Glutamax, 1% (v/v) B27, 50 μg/ml ascorbic acid, 0.2 μM LDN193189, 100 ng/ml FGF8b, 3 μM CHIR99021 and 10 µM Y27632.” left out
imDAPs were produced according to the method described in CN201910169525.0. […] Medium was replaced every 3rd day until reaching 100% confluence (6 days) for cell passaging. imDAPs were passaged enzymatically with 1× TrypLE, centrifuged at 250 g for 5 minutes, counted and plated on new DLL4/VTN-coated plates at a density of 1×10^4 cells/cm^2 in the expansion medium. imDAPs were expanded and maintained in the expansion medium for 6 passages. […]

imDAPs [3] = experiment: Flow cytometry analysis of FOXA2 expression in expanded imDAPs; details: for FOXA2 expression, FACS (FIG. 4C): VTN or DLL4+VTN coating, with or without 5 μM SB431542, 6 days
Experimental: 1. Individualize and collect cells by either Accutase or TrypLE treatment.
2. Wash cells with 1 ml PBS and pellet cells at 250×g for 15 sec.
3. Remove supernatant, add ˜200 μl of 4% PFA, mix and fix for 10 min at RT.
4. Pellet cells at 350×g for 5 min.
5. Wash cells by 1 ml of FACS buffer and pellet cells at 350×g for 5 min.
6. Remove supernatant, add 200 μl/tube of FACS buffer/0.1% TritonX, mix for 10 min at RT.
7. Wash cells by 1 ml of FACS buffer and pellet cells at 350×g for 5 min.
8. Remove supernatant, add 200 μl/tube of primary antibody diluted in FACS buffer, mix gently, and incubate for 30 min at RT.
9. Wash cells by 1 ml of FACS buffer and pellet cells at 350×g for 5 min.
10. Remove supernatant, and add 200 μl of secondary antibody diluted in FACS buffer, mix gently, and incubate for 30 min at RT.
11. Wash cells by 1 ml of FACS buffer and pellet cells at 300×g for 5 min.
12. Remove supernatant, add 200 μl of FACS buffer, and run samples on the flow cytometry.
imDAPs were produced according to the method described in CN201910169525.0. The imDAPs (P0) were seeded on VTN-coated plates (1 μg/cm^2) at a low density of 1×10^4 cells/cm^2, and cultured in the expansion medium (50% DMEM/F12, 50% Neurobasal™ medium, 1% (v/v) Glutamax, 2% (v/v) B27 (50×), 0.2 μM LDN193189, 3 μM CHIR99021, 100 ng/mL FGF8b) with either 5 μM Blebbistatin or 10 μM Y27632. Medium was replaced every 3rd day. At Day 6, cells were collected for FACS analysis.
as §1
as §2, with “EM4 used in Example 9 contained the following components: 50% DMEM/F12, 50% Neurobasal™ medium, 1% (v/v) Glutamax, 1% (v/v) B27 (50×), 50 μg/ml ascorbic acid, 0.2 μM LDN193189, 10 ng/ml FGF2, 3 μM CHIR99021, 5 μM SB431542 and 10 μM Y27632.” left out

| Molecule | imDAP expansion, overall conclusion of Example 9 (imDAPs [2]) | FOXA2 expression, FACS (FIG. 4C) (imDAPs [3]) | attachment and morphology of imDAPs on coated surface (FIG. 4A) (imDAPs [1]) | also measured |
| --- | --- | --- | --- | --- |
| Cc1ccc2c(c1)C(=O)C1(O)CCN(c3ccccc3)C1=N2 (centres unmarked) [Blebbistatin] | – | – | – | imDAP expansion (cell morphology, FIG. 1A) (imDAPs [1]; 5 μM Blebbistatin throughout culture vs absent or removed 24 hrs after plating, VTN-coated plates, 5 days, P0 imDAPs): supported better imDAP expansion |
| c1ccc2c(-c3cnn4cc(-c5ccc(N6CCNCC6)cc5)cnc34)ccnc2c1 [LDN193189] | had no additional effects on imDAP expansion | – | – | cell morphology of expanded imDAPs (FIG. 1B) (imDAPs [1]; absence vs presence of 0.2 μM LDN193189, VTN-coated, 5 days): imDAPs cultured without LDN193189 showed more flattened morphology; cell number during expansion (FIG. 5B) (imDAPs [2]; adding 0.2 μM LDN193189 and/or 100 ng/ml FGF8b to CHIR99021/SB431542/Y27632 medium, 6 days): had no additional effect on increasing the cell number; expression of FOXA2 for imDAPs, flow cytometry (FIG. 5C) (imDAPs [3]; addition of 100 ng/ml FGF8b and/or 0.2 μM LDN193189, DLL4/VTN-coated, P1 cells): slightly decreased the expression of FOXA2 |
| NC(=O)c1ccc(-c2nc(-c3ccc4c(c3)OCO4)c(-c3ccccn3)[nH]2)cc1 [SB431542] | – | could improve FOXA2 expression | – | – |
| DLL4: Notch agonist Delta-Like 4, used as coating matrix | – | could improve FOXA2 expression | could not support the attachment of imDAPs | – |
| FGF2: fibroblast growth factor | had no additional effects on imDAP expansion | – | – | cell morphology on day 5 (FIG. 5A) (imDAPs [1]; 10 ng/ml FGF2 (with 0.2 μM LDN193189) in expansion medium EM4, DLL4/VTN-coated): some obvious heterogeneous cells were observed |
| B1 | – | – | flattened morphology | – |
